From patent US20250025443A1, “COMPOUNDS AND METHODS FOR TREATING CORONA VIRUSES” (CLEAR CREEK BIO, INC., priority 2021, published 2025)
pIC50: −log10 of the molar value.

molecular target: SARS-CoV-2 Papain-Like Protease (PLpro) (Severe acute respiratory syndrome coronavirus 2 (2019-nCoV) (SARS-CoV-2), UniProt P0DTD1); assay: biochemical; conditions: PLpro enzymatic fluorescence assay; class symbols; read-out: PLpro IC50

`Cc1ccc(OC[C@@H]2CCN2C)cc1C(=O)NC1(c2cc(-c3ccc(CN4CCOCC4)s3)cc3ncccc23)CC1` [Compound 793, (S)-2-Methyl-5-((1-methylazetidin-2-yl)methoxy)-N-(1-(7-(5-(morpholinomethyl)thiophen-2-yl)quinolin-5-yl)cyclopropyl)benzamide] and `Cc1ccc(OC[C@@H]2CCN2C)cc1C(=O)NC1(c2cc(-c3cc(Cl)cs3)cc3ncccc23)CC1` [Compound 632, (S)-N-(1-(7-(4-Chlorothiophen-2-yl)quinolin-5-yl)cyclopropyl)-2-methyl-5-((1-methylazetidin-2-yl)methoxy)benzamide] cannot be ordered by pIC50: greater than 7.00 for the first, greater than 7.00 for the second.

Work on `Cc1ccc(OC[C@@H]2CCN2C)cc1C(=O)NC1(c2cc(/C=C/C3CC3)cc3ncccc23)CC1` [Compound 684, (S,E)-N-(1-(7-(2-Cyclopropylvinyl)quinolin-5-yl)cyclopropyl)-2-methyl-5-((1-methylazetidin-2-yl)methoxy)benzamide] yielded a pIC50 greater than 7.00.

same assay, conditions: SARS-CoV-2 PLpro enzymatic fluorescence assay; read-out: PLpro IC50

`COc1cc(C2(NC(=O)c3cc(OC[C@@H]4CCN4)ccc3C)CC2)c2cccnc2c1` [Compound 511, (S)-5-(Azetidin-2-ylmethoxy)-N-(1-(7-methoxyquinolin-5-yl)cyclopropyl)-2-methylbenzamide] and `Cc1cc(C2(NC(=O)c3cc(OC[C@@H]4CCN4C)ccc3C)CC2)c2cccnc2c1` [Compound 581, (S)-2-Methyl-5-((1-methylazetidin-2-yl)methoxy)-N-(1-(7-methylquinolin-5-yl)cyclopropyl)benzamide] cannot be ordered by pIC50: greater than 7.00 for the first, greater than 7.00 for the second.

First: Cc1cc2c(cc1C(=O)NC1(c3cccc4ccccc34)CC1)NC(CN)C2 (stereo not drawn) [Compound 190, 2-(Aminomethyl)-5-methyl-N-(1-(naphthalen-1-yl)cyclopropyl)indoline-6-carboxamide]
Second: Cc1cc2c(cc1C(=O)NC1(c3cccc4ccccc34)CC1)N1C(=O)NCC1C2 (stereo not drawn) [Compound 194, 7-Methyl-N-(1-(naphthalen-1-yl)cyclopropyl)-3-oxo-2,3,9,9a-tetrahydro-1H-imidazo[1,5-a]indole-6-carboxamide]
The pIC50 of the first is higher: greater than 7.00 for the first, 5.30 to 6.00 for the second. The first is the more potent here.

First: Cc1ccc(Nc2cn[nH]c2)cc1C(=O)N[C@H](C)c1cccc2ccccc12 [Compound 121, (R)-5-((1H-Pyrazol-4-yl)amino)-2-methyl-N-(1-(naphthalen-1-yl)ethyl)benzamide]
Second: Cc1ccc(C(N)=O)cc1C(=O)NC1(c2cccc3ccccc23)CC1 [Compound 257]
The pIC50 of the first is lower: 5.30 to 6.00 for the first, 6.00 to 7.00 for the second.

`Cc1ccc(CCC2CCN2C)cc1C(=O)NC1(c2cccc3ccccc23)CC1` (stereo not drawn) [Compound 455, 2-Methyl-5-(2-(1-methylazetidin-2-yl)ethyl)-N-(1-(naphthalen-1-yl)cyclopropyl)benzamide] and `Cc1ccc(OC[C@@H]2CCN2C)cc1C(=O)NC1(c2cccc3nc(O)ccc23)CC1` [Compound 545, (S)-N-(1-(2-Hydroxyquinolin-5-yl)cyclopropyl)-2-methyl-5-((1-methylazetidin-2-yl)methoxy)benzamide] cannot be ordered by pIC50: greater than 7.00 for the first, greater than 7.00 for the second.

Compared with `Cc1cc2c(cc1C(=O)NC1(c3cccc4ccccc34)CC1)NC(=O)C2(C)C` [Compound 243, 3,3,5-Trimethyl-N-(1-(naphthalen-1-yl)cyclopropyl)-2-oxoindoline-6-carboxamide], `Cc1ccc(OCCN(C)C)cc1C(=O)NC1(c2cccc3ncccc23)CC1` [Compound 301, 5-(2-(Dimethylamino)ethoxy)-2-methyl-N-(1-(quinolin-5-yl)cyclopropyl)benzamide] is higher in pIC50: 5.30 to 6.00 for the first, greater than 7.00 for the second. The second is the more potent here.

First: Cc1ccc(OCCN(C)C)cc1C(=O)NC1(c2csc3ccccc23)CC1 [Compound 346, N-(1-(Benzo[b]thiophen-3-yl)cyclopropyl)-5-(2-(dimethylamino)ethoxy)-2-methylbenzamide]
Second: CCS(=O)(=O)N1CCC([C@@H](C)NC(=O)c2cc(NC3CNC3)ccc2C)CC1 [Compound 166, (R)-5-(Azetidin-3-ylamino)-N-(1-(1-(ethylsulfonyl)piperidin-4-yl)ethyl)-2-methylbenzamide]
The pIC50 of the first is higher: 6.00 to 7.00 for the first, less than 5.30 for the second. The first is the more potent here.
